From patent US10080366B2, “Agent for increasing sugar content in fruit” (RIKEN, priority 2012, dated 2018)
Like-named read-outs stand apart in the source and are kept apart here.

How the values were obtained:
[1] = system: clusters of grape (variety: Crimson); assay: Estimated transpiration ratio of grape clusters (Example 9); type: in vivo; conditions: 10 g/L; 8 days after treatment
[2] = system: harvested fruit of grape (variety: Barikan)
Method: The fruit of grape was maintained in an air-conditioned greenhouse (temperature: 25° C.), and measured for the mass over time. The sugar content of the fruit was measured before the application and 8 days after the application with a sugar content meter. Next, on the assumption that the change in the mass of the fruit was entirely due to the change in water content, calculated values of the amount of decrease in mass and the sugar content on the date (June 2) of the application were determined […] by using the following calculation formula. (Calculated as follows: the sugar content (%) calculated value))=the sugar content (%) before application×the mass (g) on the date of application/the mass (g) on the date of measurement))

[3] = system: Mikan; conditions: 6 days after treatment
[4] = system: Tomato; conditions: 6 days after treatment
[5] = system: fruit of grape (variety: Red Globe)
Method: An agent for increasing a sugar content in a fruit (containing Sorbon T-20 as a spreader/sticker at a final concentration of 200 μL/L) diluted with water to have a potassium hydrogen carbonate concentration of 10 g/L was prepared. The mass of fruit of grape (variety: Red Globe) purchased on the market was measured. Then, the prepared agent for increasing a sugar content in a fruit was applied by spraying to the fruit of grape. Then, the fruit of grape was allowed to stand in an air-conditioned greenhouse (temperature: 25° C.), and the mass was measured over time (date of application: Apr. 27, 2011; dates of test: May 2, 2011, May 6, 2011, May 9, 2011, May 11, 2011, May 13, 2011, and May 16, 2011). In addition, as a control, the mass of untreated grape was measured on each date of measurement in the same manner.
On the basis of the measured mass, the estimated amount (cumulative value) of transpiration and the estimated amount of transpiration per day were calculated. The results are shown in Tables 5 and 6 and FIGS. 10 and 11.
Note that the vertical axis in FIG. 10 represents the mass (g) of the fruit of grape on each of the dates of measurement per 100 g of the fruit of grape on the date of application, and the vertical axis in FIG. 11 represents the estimated amount (g) of transpiration on each of the dates of measurement per 100 g of the fruit of grape on the date of application. The estimated amount (g) of transpiration on each of the dates of measurement per 100 g of the fruit of grape on the date of application=(the mass (g) of the fruit of grape on the date of application−the mass (g) of the fruit of grape on the date of measurement)/the mass of the fruit of grape on the date of application×100

[6] = 10 g/L, 25° C., mass 100 g on date of application

With `O=C([O-])C(O)C(O)C(=O)[O-].[K+].[K+]` (racemic) [DL-Potassium tartrate, reference compound] the “Estimated transpiration ratio (%) Average” value [1] was 22% and the “Estimated transpiration ratio (%) First” value [1] was 22%.

In the case of `CC(O)C(=O)[O-].[Na+]` (racemic) [DL-Sodium lactate, reference compound], the “Estimated transpiration ratio (%) Average” value [1] is reported as 26%, the “Estimated transpiration ratio (%) First” value [1] is reported as 26% and the “Estimated transpiration ratio (%) Second” value [1] is reported as 25%.

`N.N.O=C(O)O` [Ammonium carbonate, reference compound] was tested, and the “Estimated transpiration ratio (%) Average” value [1] was 26%, the “Estimated transpiration ratio (%) First” value [1] was 25% and the “Estimated transpiration ratio (%) Second” value [1] was 28%.

For `N.N.O=S(=O)(O)O` [Ammonium sulfate, reference compound], the “Estimated transpiration ratio (%) Average” value [1] was 22%, the “Estimated transpiration ratio (%) First” value [1] was 21% and the “Estimated transpiration ratio (%) Second” value [1] was 23%.

In the case of `[Ca+2].[Cl-].[Cl-]` [Calcium chloride, reference compound], the “Sugar content (%) 8 days later, actually measured value” ([2]; 10 g/L, 25° C.) is reported as 20.0%, the “Mass (g) 6 days later (Jun. 8)” value [2, 6] is reported as 86.3 g and the “Mass (g) 8 days later (Jun. 10)” value [2, 6] is reported as 81.9 g. For the same compound, the “action to increase the sugar content in the fruit (comparison)” value ([2]; 10 g/L, 8 days) was “almost the same as that of the untreated group”, the “Sugar content (%) 8 days later, calculated value” ([2]; 10 g/L, calculated from decrease in mass) was 20.8% and the “Sugar content (%) on date of application (Jun. 2)” value ([2]; before application) was 17.0%.

With `O=P([O-])([O-])O.[K+].[K+]` [Dipotassium hydrogen phosphate, dipotassium hydrogen phosphate] the “Estimated transpiration ratio (%) Average” value [1] was 28% and the “Estimated transpiration ratio (%) First” value [1] was 28%.

In the case of `O=P([O-])([O-])O.[Na+].[Na+]` [Disodium hydrogen phosphate, disodium hydrogen phosphate], the “Estimated transpiration ratio (%) Average” value [1] is reported as 31%, the “Estimated transpiration ratio (%) First” value [1] is reported as 35% and the “Estimated transpiration ratio (%) Second” value [1] is reported as 28%.

For `O=C([O-])CCC(=O)[O-].[Na+].[Na+]` [Disodium succinate], the “Estimated transpiration ratio (%) Average” value [1] was 31% and the “Estimated transpiration ratio (%) First” value [1] was 31%.

`O=C([O-])[O-].[Mg+2]` [Magnesium carbonate, magnesium carbonate] was tested, and the “Estimated transpiration ratio (%) Average” value [1] was 32% and the “Estimated transpiration ratio (%) First” value [1] was 32%.

`[Cl-].[Cl-].[Mg+2]` [Magnesium chloride, reference compound] was tested, and the “Estimated transpiration ratio (%) Average” value [1] was 25% and the “Estimated transpiration ratio (%) First” value [1] was 25%.

For `O=S(=O)([O-])[O-].[Mg+2]` [Magnesium sulfate, reference compound], the “Estimated transpiration ratio (%) Average” value [1] was 23% and the “Estimated transpiration ratio (%) First” value [1] was 23%.

For `CC(=O)[O-].[K+]` [Potassium acetate, potassium acetate], the “Estimated transpiration ratio (%) Average” value [1] was 35%, the “Estimated transpiration ratio (%) First” value [1] was 35% and the “Estimated transpiration ratio (%) Second” value [1] was 35%.

In the case of `[Cl-].[K+]` [Potassium chloride, reference compound], the “Estimated transpiration ratio (%) Average” value [1] is reported as 25% and the “Estimated transpiration ratio (%) First” value [1] is reported as 25%.

`O=S(=O)([O-])[O-].[K+].[K+]` [Potassium sulfate, reference compound] was tested, and the “Estimated transpiration ratio (%) Average” value [1] was 24% and the “Estimated transpiration ratio (%) First” value [1] was 24%.

In the case of `CC(=O)[O-].O.O.O.[Na+]` [Sodium acetate trihydrate], the “Estimated transpiration ratio (%) Average” value [1] is reported as 34%, the “Estimated transpiration ratio (%) First” value [1] is reported as 35% and the “Estimated transpiration ratio (%) Second” value [1] is reported as 33%.

`CC(=O)[O-].[Na+]` [Sodium acetate, sodium acetate] was tested, and the “Ratio (%) of decrease in body weight of fruit” value (“Ratio (%) of decrease” for short) ([3]; dilution ratio 50 (20 g/L)) was 11.4%, the “Ratio (%) of decrease” value ([3]; dilution ratio 100 (10 g/L)) was 11.2% and the “Ratio (%) of decrease” value ([4]; dilution ratio 50 (20 g/L)) was 14.5%. For the same compound, the “Ratio (%) of decrease” value ([4]; dilution ratio 100 (10 g/L)) was 15.6%.

With `O=C([O-])[O-].[Na+].[Na+]` [Sodium carbonate, sodium carbonate] the “Estimated transpiration ratio (%) Average” value [1] was 32%, the “Estimated transpiration ratio (%) First” value [1] was 32% and the “Estimated amount (g) of transpiration per 100 g of fruit on date of application” value ([5]; 5 days later) was 14.1 g. For the same compound, the “Mass (g) of fruit per 100 g of fruit on date of application” value (“Mass (g) of fruit per 100 g of fruit” for short) ([5]; 5 days later (applied Apr. 27)) was 85.9 g, the “Estimated amount (g) of transpiration per 100 g of fruit on date of application” value ([5]; 9 days later) was 24.1 g and the “Mass (g) of fruit per 100 g of fruit” value ([5]; 9 days later) was 75.9 g. The “Estimated amount (g) of transpiration per 100 g of fruit on date of application” value ([5]; 12 days later) was 30.3 g, the “Mass (g) of fruit per 100 g of fruit” value ([5]; 12 days later) was 69.7 g and the “Estimated amount (g) of transpiration per 100 g of fruit on date of application” value ([5]; 14 days later) was 34.6 g. The “Mass (g) of fruit per 100 g of fruit” value ([5]; 14 days later) was 65.4 g, the “Estimated amount (g) of transpiration per 100 g of fruit on date of application” value ([5]; 16 days later) was 38.7 g and the “Mass (g) of fruit per 100 g of fruit” value ([5]; 16 days later) was 61.3 g. For the same compound, the “Estimated amount (g) of transpiration per 100 g of fruit on date of application” value ([5]; 19 days later) was 44.5 g, the “Mass (g) of fruit per 100 g of fruit” value ([5]; 19 days later) was 55.5 g and the “Ratio (%) of decrease” value ([3]; dilution ratio 100 (10 g/L)) was 10.4%. The “Ratio (%) of decrease” value ([4]; dilution ratio 100 (10 g/L)) was 12.7%.

`[Cl-].[Na+]` [Sodium chloride, reference compound] was tested, and the “Estimated transpiration ratio (%) Average” value [1] was 22% and the “Estimated transpiration ratio (%) First” value [1] was 22%.

`O=C([O-])O.[Na+]` [Sodium hydrogen carbonate, sodium hydrogen carbonate] was tested, and the “Estimated transpiration ratio (%) Average” value [1] was 30%, the “Estimated transpiration ratio (%) First” value [1] was 33% and the “Estimated transpiration ratio (%) Second” value [1] was 28%. For the same compound, the “Estimated amount (g) of transpiration per 100 g of fruit on date of application” value ([5]; 5 days later) was 12.4 g, the “Mass (g) of fruit per 100 g of fruit” value ([5]; 5 days later (applied Apr. 27)) was 87.6 g and the “Estimated amount (g) of transpiration per 100 g of fruit on date of application” value ([5]; 9 days later) was 21.7 g. The “Mass (g) of fruit per 100 g of fruit” value ([5]; 9 days later) was 78.3 g, the “Estimated amount (g) of transpiration per 100 g of fruit on date of application” value ([5]; 12 days later) was 27.3 g and the “Mass (g) of fruit per 100 g of fruit” value ([5]; 12 days later) was 72.7 g. For the same compound, the “Estimated amount (g) of transpiration per 100 g of fruit on date of application” value ([5]; 14 days later) was 31.5 g, the “Mass (g) of fruit per 100 g of fruit” value ([5]; 14 days later) was 68.5 g and the “Estimated amount (g) of transpiration per 100 g of fruit on date of application” value ([5]; 16 days later) was 35.6 g. The “Mass (g) of fruit per 100 g of fruit” value ([5]; 16 days later) was 64.4 g, the “Estimated amount (g) of transpiration per 100 g of fruit on date of application” value ([5]; 19 days later) was 41.5 g and the “Mass (g) of fruit per 100 g of fruit” value ([5]; 19 days later) was 58.5 g. The “Ratio (%) of decrease” value ([3]; dilution ratio 100 (10 g/L)) was 11.4% and the “Ratio (%) of decrease” value ([4]; dilution ratio 100 (10 g/L)) was 12.8%.

With `O=C([O-])CC(O)(CC(=O)[O-])C(=O)[O-].[K+].[K+].[K+]` [Tripotassium citrate] the “Estimated transpiration ratio (%) Average” value [1] was 30%, the “Estimated transpiration ratio (%) First” value [1] was 32% and the “Estimated transpiration ratio (%) Second” value [1] was 28%.

In the case of `O=P([O-])([O-])[O-].[K+].[K+].[K+]` [Tripotassium phosphate, tripotassium phosphate], the “Estimated amount (g) of transpiration per 100 g of fruit on date of application” value ([5]; 5 days later) is reported as 15.9 g, the “Mass (g) of fruit per 100 g of fruit” value ([5]; 5 days later (applied Apr. 27)) is reported as 84.1 g and the “Estimated amount (g) of transpiration per 100 g of fruit on date of application” value ([5]; 9 days later) is reported as 26.3 g. The “Mass (g) of fruit per 100 g of fruit” value ([5]; 9 days later) was 73.7 g, the “Estimated amount (g) of transpiration per 100 g of fruit on date of application” value ([5]; 12 days later) was 33.1 g and the “Mass (g) of fruit per 100 g of fruit” value ([5]; 12 days later) was 66.9 g. For the same compound, the “Estimated amount (g) of transpiration per 100 g of fruit on date of application” value ([5]; 14 days later) was 37.6 g, the “Mass (g) of fruit per 100 g of fruit” value ([5]; 14 days later) was 62.4 g and the “Estimated amount (g) of transpiration per 100 g of fruit on date of application” value ([5]; 16 days later) was 41.1 g. For the same compound, the “Mass (g) of fruit per 100 g of fruit” value ([5]; 16 days later) was 58.3 g, the “Estimated amount (g) of transpiration per 100 g of fruit on date of application” value ([5]; 19 days later) was 47.4 g and the “Mass (g) of fruit per 100 g of fruit” value ([5]; 19 days later) was 52.8 g.
